We go through 87 molecules from PubChem BioAssay AID1645866 (Buhrlage Lab, Dana-Farber Cancer Institute and Novartis …, 2021).

The test concerns the target Ubiquitin carboxyl-terminal hydrolase 28 (Homo sapiens) (UniProt Q96RU2). The experiment in a line: Ubiquitin-specific peptidase 28 DUB inhibitors, biochemical concentration-dependence assay, validation of primary screening hits (AID 1645866). The note with it: purified USP28, ubiquitin-rhodamine fluorescence, 30 min.

By IC50 is commonly meant the midpoint of a concentration-inhibition curve.

Active and inactive are the calls of the source.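 How the source made its calls: active means in confirmatory dose-response testing, peak deubiquitinase inhibition of 30% or more; inactive means the rest.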 Positions of bridges follow the written chain, without caps; N, C: chain ends. Residues, ends and D or L forms follow the SMILES beside them. ξ: configuration not given here. *: point of attachment. Pentadecanoyl(3ξ-OH,15-Gua) = N=C(N)NCCCCCCCCCCCCC(O)CC(=O)*

Chain of Ubiquitin carboxyl-terminal hydrolase 28 (Homo sapiens) (Q96RU2 whole entry, looked up): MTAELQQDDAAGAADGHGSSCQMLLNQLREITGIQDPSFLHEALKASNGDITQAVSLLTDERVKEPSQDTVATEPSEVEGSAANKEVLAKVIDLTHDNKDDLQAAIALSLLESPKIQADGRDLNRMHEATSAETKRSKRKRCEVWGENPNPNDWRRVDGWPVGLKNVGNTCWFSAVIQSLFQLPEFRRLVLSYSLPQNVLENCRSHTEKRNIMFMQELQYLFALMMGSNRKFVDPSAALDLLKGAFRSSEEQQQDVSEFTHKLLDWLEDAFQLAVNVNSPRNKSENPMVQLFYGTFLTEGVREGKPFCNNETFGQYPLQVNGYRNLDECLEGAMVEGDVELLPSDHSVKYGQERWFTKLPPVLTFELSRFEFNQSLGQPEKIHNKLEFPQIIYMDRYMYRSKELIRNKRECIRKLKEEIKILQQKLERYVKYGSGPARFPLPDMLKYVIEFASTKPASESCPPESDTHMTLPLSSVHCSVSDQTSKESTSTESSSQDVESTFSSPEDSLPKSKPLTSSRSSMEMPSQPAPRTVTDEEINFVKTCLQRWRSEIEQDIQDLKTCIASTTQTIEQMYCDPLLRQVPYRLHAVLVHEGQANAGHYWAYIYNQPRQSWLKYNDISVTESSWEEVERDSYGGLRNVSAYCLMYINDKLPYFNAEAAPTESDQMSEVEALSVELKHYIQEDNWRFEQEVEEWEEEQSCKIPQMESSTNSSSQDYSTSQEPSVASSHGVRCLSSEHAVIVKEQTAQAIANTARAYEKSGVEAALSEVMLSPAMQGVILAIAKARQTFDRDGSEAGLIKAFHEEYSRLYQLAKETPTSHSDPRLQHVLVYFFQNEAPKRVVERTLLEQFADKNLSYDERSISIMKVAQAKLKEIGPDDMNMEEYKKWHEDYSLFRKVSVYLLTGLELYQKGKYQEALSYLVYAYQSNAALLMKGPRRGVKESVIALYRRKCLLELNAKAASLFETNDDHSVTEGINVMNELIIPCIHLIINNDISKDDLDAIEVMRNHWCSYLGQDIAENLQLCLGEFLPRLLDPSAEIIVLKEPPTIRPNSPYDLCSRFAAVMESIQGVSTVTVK

On to `COc1ccc(S(=O)(=O)N2CCc3ccccc32)cc1C(=O)Nc1ccc2[nH]c(=O)[nH]c2c1`, for which the IC50 is 9.13 µM.

With `COc1ccc(/C=C/C(=O)Nc2cccc(S(=O)(=O)Nc3ccccc3Cl)c2)c(OC)c1`, the IC50 is 21.4 µM.

Consider `CN1C(=O)c2cc(NC(=O)c3ccccc3Cl)ccc2Oc2ccccc21`, for which the 50% inhibitory concentration (IC50) is 1.25 µM.

`CCn1c(=O)c(=O)[nH]c2cc(C(=O)Nc3cccc(-c4csc(C)n4)c3)ccc21`: the IC50 is 1.99 µM.

On to `CC(C)(C)N=C1Nc2ncccc2NC12CCCN(C(=O)c1ccccc1)C2` (configuration not stated), for which the IC50 is > 50 µM (inactive).

Turning to `CCN1C(SCc2ccc(F)cc2)=NS(=O)(=O)c2ccccc21`, the IC50 is 26.7 µM.

In the case of `COc1ccc2c(C)c(CC(=O)N3CCC[C@H]3C(=O)O)c(=O)oc2c1C`, the half-maximal inhibitory concentration (IC50) is 44.6 µM.

As for `Cc1nn(-c2ccc(F)cc2)cc1-c1noc(C(=O)NCc2ccccn2)n1`, the IC50 is 22.8 µM.

For the molecule `COc1ccc(NC(=O)c2ccnc(Nc3ccc(OC)cc3)c2)cc1`, the IC50 was 39.7 µM.

For `Cc1ccc2cc3c(nc2n1)CCN(Cc1ccc(F)cc1)C3`, the IC50 was > 50 µM (inactive).

`CC1CCN(S(=O)(=O)c2ccc3[nH]cc(C(=O)NCc4ccco4)c(=O)c3c2)CC1`: the IC50 was > 50 µM (inactive).

For the molecule `O=C(COC(=O)C1CCCN1C(=O)C12CC3CC(CC(C3)C1)C2)c1ccc(Cl)cc1` (configuration not stated), the IC50 is > 50 µM (inactive).

On to `CCC(C)c1ccc(O[C@@H]2O[C@@H]3COC(c4ccccc4)O[C@H]3[C@H](O)[C@H]2NC(C)=O)cc1` (some centres not stated), for which the IC50 was 20.2 µM.

Regarding `Cc1cc(-c2ccnc3c(C#N)cnn23)c(C)s1`, the half-inhibitory concentration (IC50) was 28.3 µM.

Take `COc1cccc2c1NC(=O)C21CCN(C(=O)Nc2cccc(C)c2)CC1`: the 50% inhibitory concentration (IC50) is 14.6 µM.

`O=C(COC(=O)Cn1cnc2ccccc21)Nc1ccc2c(c1)OCCO2`: the half-maximal inhibitory concentration (IC50) is 29.3 µM.

`Cn1c(CCNC(=O)c2[nH]nc3c2CCc2ccccc2-3)nc2ccccc21`: the IC50 was 23.7 µM.

As for `CCOc1ccccc1NC(=O)Cn1ccn2nc(-c3ccc(OC)cc3)cc2c1=O`, the IC50 is 16.5 µM.

Consider `COc1ccc(Cl)cc1NC(=O)Cn1c(=O)cc(C)c2c(C)nn(-c3ccccc3)c21`, for which the half-inhibitory concentration (IC50) was 5.44 µM.

With `CCC(=O)Nc1nc2cc(NC(=O)Nc3cc(C)cc(C)c3)ccc2s1`, the half-maximal inhibitory concentration (IC50) was 2.97 µM.

On to `CC(NC(=O)c1ccccc1)c1nc2ccccc2n1CC(=O)Nc1ccc2c(c1)OCO2` (configuration not stated), for which the IC50 was 2.11 µM.

Take `COc1cccc(N2CCN(C(=O)c3cc(NC(C)=O)cc4nc(C)ccc34)CC2)c1`: the IC50 was > 50 µM (inactive).

As for `CCC1=C(c2ccc(C)cc2)S(=O)(=O)NC1=NCC(=O)NCc1ccccc1F`, the IC50 was 33.2 µM.

On to `O=C(COc1cccc(-n2cnnn2)c1)Nc1ccc2c(c1)OCCO2`, for which the IC50 is 31.4 µM.

`Fc1ccc(Nc2nc(Nc3cccc(F)c3)nc3nccnc23)cc1`: the IC50 is > 50 µM (inactive).

As for `Cc1nc(-c2noc(-c3ccncc3)n2)cn1CC(=O)N1CCN(c2ccc(F)cc2)CC1`, the half-maximal inhibitory concentration (IC50) was 37.6 µM.

With `O=C(Cn1cnc2ccccc21)Nc1ccc2c(c1)CCC2`, the IC50 is 28.7 µM.

Take `O=C(COc1ccc(Cl)cc1)Nc1noc(-c2ccccc2)n1`: the 50% inhibitory concentration (IC50) was 22.4 µM.

Regarding `COc1ccc(CNC(=O)C(C)n2nc(-c3ccco3)c(-c3cc(C)no3)cc2=O)cc1` (configuration not stated), the 50% inhibitory concentration (IC50) was 26.4 µM.

As for `COc1cc(OC)c(NC(=O)Cn2c(=O)n(Cc3ccccc3Cl)c(=O)c3cc(OC)c(OC)cc32)cc1Cl`, the half-inhibitory concentration (IC50) is 3.28 µM.

As for `O=C(Nc1ccc2c(c1)OCO2)c1cc(-c2cccnc2)n(-c2ccccc2)n1`, the concentration for half-maximal inhibition (IC50) was 8.27 µM.

With `Cc1cccc(NC(=O)c2noc3c2CCc2sccc2-3)n1`, the 50% inhibitory concentration (IC50) is 16.8 µM.

Regarding `CC(C)(C)C(=O)Nc1ccc(C(=O)Nc2cccc(-c3nnc(-c4ccccc4)o3)c2)cc1`, the IC50 is 4.78 µM.

As to `CC(C)(C)C(=O)[C@@H]1[C@@H](C(=O)c2ccc3c(c2)OCO3)[C@@]2(C(=O)Nc3ccccc32)[C@H]2c3ccccc3C=CN12`, the concentration for half-maximal inhibition (IC50) is 44.5 µM.

For the molecule `CC(OC(=O)c1ccc2c(c1)OCCO2)C(=O)NCC1CCCCC1` (configuration not stated), the IC50 was 26.1 µM.

As to `O=C(Nc1ccc(SCc2nnc(-c3ccccc3)o2)cc1)C1CC1`, the concentration for half-maximal inhibition (IC50) is 8.42 µM.

With `COc1ccc(C(=O)CSc2nnc(-c3cccnc3)n2-c2ccccc2)cc1`, the IC50 was > 50 µM (inactive).

Regarding `COc1ccc(C)cc1NC(=O)C(NS(=O)(=O)c1ccc2c(c1)CCN2C(C)=O)C(C)C` (configuration not stated), the IC50 was > 50 µM (inactive).

On to `Cc1nc(SCC(=O)Nc2cc(Cl)ccc2C)c2oc3ccccc3c2n1`, for which the IC50 was 2.06 µM.

`Cc1nnc(NCc2cccnc2)c2c1nnn2Cc1ccccc1Cl`: the IC50 is 26.4 µM.

Take `O=C(COc1nsnc1N1CCOCC1)Nc1ccccc1F`: the IC50 is > 50 µM (inactive).

`CCn1c(Cn2cccn2)nc2cc(NC(=O)c3ccc(F)cc3)ccc21`: the 50% inhibitory concentration (IC50) was 15.5 µM.

Take `COc1ccc(OC)c(NC(=O)c2ccc(-n3nnnc3SC)cc2)c1`: the IC50 was 22.6 µM.

For the molecule `Cc1ccccc1NC(=O)Nc1ccccc1OCc1cc(=O)n2cccc(C)c2n1`, the IC50 is 1.04 µM.

As to `CCOc1ccc(NC(=O)Cn2c(=O)n(CCC(=O)NCc3ccccc3OC)c(=O)c3ccccc32)cc1`, the IC50 was 4.01 µM.

On to `O=C(COc1nc2ccccc2nc1N1CCOCC1)Nc1cccc(S(=O)(=O)N2CCCCC2)c1`, for which the IC50 is > 50 µM (inactive).

With `COc1ccc(NC(=O)COc2cc(CSc3ccccc3)ncc2OC)cc1`, the IC50 is > 50 µM (inactive).

Turning to `COc1ccc(OC)c(NC(=O)C2Oc3ccccc3NC2=O)c1` (configuration not stated), the IC50 was 8.5 µM.

Turning to `CC1NC(=O)C(CC(N)=O)NC(=O)C(C(C)O)NC(=O)C(Cc2ccc(O)cc2)NC(=O)C(C(C)C)NC(=O)C(NC(=O)CC(O)CCCCCCCCCCCCN=C(N)N)C(C)OC1=O` (configuration not stated) ({Pentadecanoyl(3ξ-OH,15-Gua)}-TVYTNA; ester 1-C; configuration not given here), the IC50 was 3.63 µM.

Regarding `CC1(C)CC2CC(C)(CN2Cc2c(O)ccc3ccccc23)C1` (configuration not stated), the IC50 was > 50 µM (inactive).

On to `O=C1c2c(O)c(Cl)cc3c2[C@@]2(Oc4cc(Cl)c(O)c5c4[C@]3(O2)[C@@H]2O[C@@H]2C5=O)[C@@H]2O[C@H]12`, for which the IC50 is 0.495 µM.

Consider `COC(=O)C1C(c2ccc(OC)cc2)C2(C(=O)c3ccccc3C2=O)C2C=Cc3ccccc3N12` (configuration not stated), for which the IC50 is > 50 µM (inactive).

Turning to `Cc1sc2ncn3c(=O)n(CC(=O)Nc4ccc(F)c(Cl)c4)nc3c2c1C`, the half-inhibitory concentration (IC50) is 3.14 µM.

As for `N#Cc1ccc(NC(=O)COC(=O)c2ccc3ccccc3n2)cc1`, the IC50 is > 50 µM (inactive).

With `COc1ccc(-c2nc(Cn3nnc(C(=O)Nc4ccc(C)cc4C)c3N)c(C)o2)cc1`, the half-inhibitory concentration (IC50) is 42.9 µM.

Turning to `Cc1ccc(-n2nc(C(=O)Nc3ccc(C)cn3)c3ncn(C)c(=O)c32)cc1`, the IC50 was 1.69 µM.

Turning to `O=C(NCc1ccc2c(c1)OCO2)c1ccc(C2SCC(=O)N2Cc2ccco2)cc1` (configuration not stated), the IC50 is > 50 µM (inactive).

Take `Cc1cc(Cl)ccc1Nc1nc(Nc2cccc(F)c2)nc2nccnc12`: the IC50 is > 50 µM (inactive).

In the case of `COc1cc(OC)cc(-c2nc(-c3cn(-c4cccc(F)c4)nn3)no2)c1`, the IC50 was 0.483 µM.

As to `CCOc1ccc(-c2ccc3nnc(SCC(=O)Nc4cccc(C(C)=O)c4)n3n2)cc1`, the IC50 is 1.65 µM.

Take `N#Cc1ccc(NC(=O)c2ccc(S(=O)(=O)N3CCCCC3)cc2)cc1`: the concentration for half-maximal inhibition (IC50) was 27.6 µM.

For the molecule `COc1cccc(Cn2nc3n(CC(C)C)c(=O)c4ccc(C(=O)NCC(C)C)cc4n3c2=O)c1`, the half-inhibitory concentration (IC50) is 6.72 µM.

In the case of `O=c1c(OC2O[C@H](CO)[C@H](O)[C@H](O)[C@H]2O)c(-c2ccc(O)cc2)oc2cc(O)cc(O)c12` (some centres not stated), the IC50 is > 50 µM (inactive).

Consider `O=C(Cn1cnc2c(oc3ccccc32)c1=O)NCc1ccccc1Cl`, for which the IC50 was 22.2 µM.

`O=S(c1ccc2ccccc2c1)c1cnns1` (configuration not stated): the IC50 was > 50 µM (inactive).

For `CCN1C(SCc2ccccc2F)=NS(=O)(=O)c2ccccc21`, the IC50 is 12.6 µM.

For the molecule `COc1ccc(C)cc1NC(=O)Cc1csc(NC(=O)c2ccc(=O)[nH]c2)n1`, the IC50 is 46.9 µM.

Take `O=C(COc1ccc(S(=O)(=O)N2CCOCC2)cc1)N1CCC(Cc2ccccc2)CC1`: the half-maximal inhibitory concentration (IC50) is 12.2 µM.

As to `Cc1cc(-c2nnc(SCC(=O)Nc3ccc(Br)c(C)c3)n2N)n[nH]1`, the IC50 was 15.6 µM.

Take `O=C(/C=C/c1ccccc1)N1CCN(C2=NS(=O)(=O)c3ccccc32)CC1`: the IC50 is > 50 µM (inactive).

On to `CC(C)Cc1nc2oc3c(N(C)CCO)ncnc3c2c2c1CCC2`, for which the IC50 was > 50 µM (inactive).

For the molecule `CCN1C(=O)c2cccnc2Sc2cc(NC(=O)c3ccc(Cl)s3)ccc21`, the 50% inhibitory concentration (IC50) is 4.61 µM.

In the case of `O=C(/C=C/c1ccc2c(c1)OCO2)Nc1nc2c(s1)COCC2`, the half-inhibitory concentration (IC50) is 27.5 µM.

With `COc1cccc(NC(=O)Nc2ccc3nc4n(c(=O)c3c2)CCCC4)c1`, the half-inhibitory concentration (IC50) was 3.13 µM.

With `COc1ccc(-c2cc(C(C)=O)c(C)n2CCC(=O)Nc2ccc(OC)cc2OC)cc1`, the 50% inhibitory concentration (IC50) was 43.1 µM.

Regarding `O=C(CCn1c(=O)c2ccccc2n(Cc2cc(=O)n3ccccc3n2)c1=O)NCCc1ccc(Cl)cc1`, the IC50 was 19.4 µM.

On to `NC(=O)c1ccc(NC(=O)Cc2cc(-c3ccc(Cl)cc3)on2)cc1`, for which the IC50 was > 50 µM (inactive).

For `COc1ccc(CCNC(=O)CCCn2c(=O)c3ccccc3n(CC(=O)OCc3ccccc3)c2=O)cc1OC`, the IC50 was 16 µM.

With `COc1ccccc1CNC(=O)c1ccc(CSc2nc3ccncc3n2Cc2ccccc2)cc1`, the IC50 is 30.9 µM.

As for `Cc1noc(NS(=O)(=O)c2ccc(NC(=O)CSc3ccc4ccccc4c3)cc2)c1C`, the IC50 is > 50 µM (inactive).

In the case of `COc1ccc(CCn2cnc3c([nH]c4ccccc43)c2=O)cc1`, the 50% inhibitory concentration (IC50) was 12.5 µM.

Take `O=C(NCc1cccc(NC(=O)C2CC2)c1)Nc1cccc2ccccc12`: the IC50 was 20.5 µM.

With `COc1ccc(-c2cc(-c3ccc(F)cc3)[nH]c(=O)c2C#N)cc1`, the half-maximal inhibitory concentration (IC50) is 21.8 µM.

Consider `Cc1ccc2c(C)nc(Nc3ncc4c(n3)CC(c3ccco3)CC4=O)nc2c1` (configuration not stated), for which the half-inhibitory concentration (IC50) was below 0.05 µM.

In the case of `Cc1cc(C(=O)N2CCOC3(CC=CCN(CCc4ccccc4)C3=O)C2)n2nccc2n1` (configuration not stated), the IC50 is > 50 µM (inactive).

For `CSc1ccc(CNC(=O)CC2CCN(S(=O)(=O)c3ccc(C)cc3)CC2)cc1`, the IC50 was 16.3 µM.

Turning to `N#Cc1ccc(NC(=O)Nc2cccn(Cc3ccccc3F)c2=O)cc1`, the IC50 was 0.235 µM.
